Assay results: US20220306659A1, “COMPOUND INHIBITING AND INDUCING DEGRADATION OF EGFR AND ALK” (BEIJING TIDE PHARMACEUTICAL CO., LTD., priority 2019, published 2022)

Tests used:
EGFR^L858R/T790M/C797S = EGFR^L858R/T790M/C797S (Homo sapiens, UniProt P00533, C797S/L858R/T790M); assay: EGFR inhibitory activity assay (TK-substrate-biotin/ATP, 665/615 ratio); format: biochemical; settings: kinase inhibition
Method: EGFR Inhibitory Activity Assay
(1) A compound stock solution was prepared and diluted 3× to obtain a compound dilution; 10 nL of the compound dilution was transferred to a 384-well plate (784075, Greiner) by Echo 550;
(2) The plate was sealed, and centrifuged at 1,000 g for 1 min;
(4) 5 μl of the 2×EGFR protein working solution was added to the 384-well plate from step (2), centrifuged at 1,000 g for 30 s, and allowed to stand at room temperature (mixed thoroughly) for 10 min;
(6) 5 µL of the TK-substrate-biotin and ATP (the mixture prepared in step (5)) was added to the 384-well plate from step (4) to initiate the reaction;
(7) The mixture was centrifuged at 1,000 g for 30 s; the plate was sealed, and allowed to stand (and reacted) at room temperature for 40 min;
(8) 4×Sa-XL 665 and TK-antibody-Cryptate were prepared with detection buffer;
(9) 5 µL of the Sa-XL 665 and 5 µL of the TK-antibody-Cryptate were added successively to the 384-well plate from step (7);
(10) The mixture was centrifuged at 1,000 g for 30 s, and allowed to stand (reacted) at room temperature for 1 h;
(11) The fluorescence values were read at 615 nm and 665 nm by enzyme labeling instrument (PerkinElmer, 74785).
The ratio (665/615) of each well was calculated.
Formula of inhibition rate (%): […]
Ratiocmpd: Ratio (665/615) value of assay compound.
Ratiopositive: Average ratio (665/615) value of positive control.
Ratiovehicle: Average ratio (665/615) value of negative control.
(§1) The nonlinear regression curve (dose response-variable slope) between the value of inhibition rate (%) and the logarithm of compound concentration was fitted with graphpad prism 8.0, the effect dose curve of compound was drawn, and the IC50 value was calculated.

[1] = molecular target: Ba/F3(EGFR^L858R/T790M/C797S) cells (Homo sapiens, UniProt P00533, T790M/C797S/L858R, cells depend on it); assay: Assay of activity on Ba/F3 cells (CTG, 72 h); format: cell-based; settings: read-out: IC50 (nM) Ba/F3 (EGFR^L858R/T790M/C797S)
Outline: (§2)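 Ba/F3 cells dependent on each EGFR triple mutant were exposed to 3-fold compound dilutions for 72 h at 37° C, 5% CO2, with CellTiter-Glo luminescence as the read-out.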

[2] = molecular target: Ba/F3(EGFR^Del19/T790M/C797S) cells (Homo sapiens, UniProt P00533, DEL746-750/T790M/C797S, cells depend on it); assay: Assay of activity on Ba/F3 cells (CTG, 72 h); format: cell-based; settings: read-out: IC50 (nM) Ba/F3 (EGFR^Del19/T790M/C797S)
Outline: as §2

Ba/F3(EML4-ALK) cells = molecular target: T1, Ba/F3(EML4-ALK) cells (Homo sapiens, UniProt Q9UM73); assay: Assay of activity on Ba/F3(EML4-ALK) cells (CTG, 72 h); format: cell-based; settings: read-out: IC50 (nM) Ba/F3(EML4-ALK)
T1 construct: fused on or other part: Q9HC35 (Echinoderm microtubule-associated protein-like 4)
Method: Assay of activity on Ba/F3(EML4-ALK) cells
(1) Ba/F3(EML4-ALK) cells were cultured according to the requirements of ATCC, incubated in an incubator at 37° C. and 5% CO2, and analyzed by index; cells with viability of >90% can be used in the assay, and cells were seeded in a 384-well plate (PerkinElmer, 6007680) with 700 cells/well, 30 μl/well.
(2) A compound stock solution was prepared, and diluted 3× to obtain a compound dilution; 30 nL of the serial dilution was added to a 384-well plate (784075, Greiner) by Echo 550, and cells were incubated in an incubator at 37° C. and 5% CO2 for 72 h.
(3) 30 μL of CTG was added to each well, and the 384-well plate was shaken on a Plate shaker (QILINBEIER, QB-9002); the 384-well plate was incubated in the dark at 37° C. and 5% CO2 for 30 min, and the chemiluminescence value was read by Envision (PerkinElmer, EnVision 2104).
The percent inhibition rate (% inhibition) was calculated by the formula below
LUMcmpd: Luminescence value of assay compound.
LUMpositive: Average LUM value of positive drug at a concentration of 10 μM.
LUM^vehicle: Average LUM value of negative control group without drug treatment.
as §1
Y=Bottom+(Top−Bottom)/(1+10^((LogIC50−X)*HillSlope))
X-axis: logarithm of compound concentration; Y axis: inhibition rate (% inhibition).

T1 sequence (Q9UM73 whole entry, change not shown, the tested form may be a part): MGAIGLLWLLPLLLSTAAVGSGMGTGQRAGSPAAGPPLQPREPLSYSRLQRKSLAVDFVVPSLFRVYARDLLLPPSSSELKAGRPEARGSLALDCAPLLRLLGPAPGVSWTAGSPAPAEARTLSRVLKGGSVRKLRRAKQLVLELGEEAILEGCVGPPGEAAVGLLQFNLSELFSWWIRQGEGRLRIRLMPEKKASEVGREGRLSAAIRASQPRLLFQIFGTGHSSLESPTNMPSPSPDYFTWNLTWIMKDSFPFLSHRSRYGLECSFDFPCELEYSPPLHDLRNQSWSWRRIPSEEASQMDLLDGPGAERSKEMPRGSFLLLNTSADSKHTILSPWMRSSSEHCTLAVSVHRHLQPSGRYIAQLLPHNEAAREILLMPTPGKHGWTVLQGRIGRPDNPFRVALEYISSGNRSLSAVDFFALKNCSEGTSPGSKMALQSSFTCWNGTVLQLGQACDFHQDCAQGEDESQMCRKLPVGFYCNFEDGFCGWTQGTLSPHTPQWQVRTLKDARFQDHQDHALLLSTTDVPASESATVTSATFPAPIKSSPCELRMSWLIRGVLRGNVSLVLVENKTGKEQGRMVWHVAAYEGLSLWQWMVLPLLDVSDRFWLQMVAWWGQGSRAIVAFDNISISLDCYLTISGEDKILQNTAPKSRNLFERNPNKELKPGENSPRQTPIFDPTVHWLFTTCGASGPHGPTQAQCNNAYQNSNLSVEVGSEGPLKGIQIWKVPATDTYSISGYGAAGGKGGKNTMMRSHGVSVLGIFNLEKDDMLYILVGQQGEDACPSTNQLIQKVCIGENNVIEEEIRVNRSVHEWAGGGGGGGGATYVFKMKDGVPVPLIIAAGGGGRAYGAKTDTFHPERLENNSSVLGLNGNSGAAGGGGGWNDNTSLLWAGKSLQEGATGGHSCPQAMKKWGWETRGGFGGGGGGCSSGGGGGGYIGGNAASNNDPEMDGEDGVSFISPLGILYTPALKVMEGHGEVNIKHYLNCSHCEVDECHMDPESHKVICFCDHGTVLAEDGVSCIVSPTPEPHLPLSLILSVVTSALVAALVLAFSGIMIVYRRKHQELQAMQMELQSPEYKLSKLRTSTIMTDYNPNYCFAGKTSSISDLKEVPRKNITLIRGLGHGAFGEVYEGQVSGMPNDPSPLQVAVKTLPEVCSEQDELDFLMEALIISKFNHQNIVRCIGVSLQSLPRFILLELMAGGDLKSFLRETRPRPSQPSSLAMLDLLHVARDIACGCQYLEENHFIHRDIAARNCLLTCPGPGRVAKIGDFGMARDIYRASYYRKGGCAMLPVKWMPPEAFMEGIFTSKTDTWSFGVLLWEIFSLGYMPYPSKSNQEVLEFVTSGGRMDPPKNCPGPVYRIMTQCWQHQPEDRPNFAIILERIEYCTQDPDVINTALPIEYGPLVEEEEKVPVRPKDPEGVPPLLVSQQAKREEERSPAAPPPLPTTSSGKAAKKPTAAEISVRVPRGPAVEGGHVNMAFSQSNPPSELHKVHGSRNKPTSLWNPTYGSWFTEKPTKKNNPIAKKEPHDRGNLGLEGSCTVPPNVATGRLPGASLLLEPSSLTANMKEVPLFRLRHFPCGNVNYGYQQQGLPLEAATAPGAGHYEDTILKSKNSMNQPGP
Ba/F3(EGFR^L858R/T790M/C797S) cells, sequence (P00533 whole entry T790M/C797S/L858R): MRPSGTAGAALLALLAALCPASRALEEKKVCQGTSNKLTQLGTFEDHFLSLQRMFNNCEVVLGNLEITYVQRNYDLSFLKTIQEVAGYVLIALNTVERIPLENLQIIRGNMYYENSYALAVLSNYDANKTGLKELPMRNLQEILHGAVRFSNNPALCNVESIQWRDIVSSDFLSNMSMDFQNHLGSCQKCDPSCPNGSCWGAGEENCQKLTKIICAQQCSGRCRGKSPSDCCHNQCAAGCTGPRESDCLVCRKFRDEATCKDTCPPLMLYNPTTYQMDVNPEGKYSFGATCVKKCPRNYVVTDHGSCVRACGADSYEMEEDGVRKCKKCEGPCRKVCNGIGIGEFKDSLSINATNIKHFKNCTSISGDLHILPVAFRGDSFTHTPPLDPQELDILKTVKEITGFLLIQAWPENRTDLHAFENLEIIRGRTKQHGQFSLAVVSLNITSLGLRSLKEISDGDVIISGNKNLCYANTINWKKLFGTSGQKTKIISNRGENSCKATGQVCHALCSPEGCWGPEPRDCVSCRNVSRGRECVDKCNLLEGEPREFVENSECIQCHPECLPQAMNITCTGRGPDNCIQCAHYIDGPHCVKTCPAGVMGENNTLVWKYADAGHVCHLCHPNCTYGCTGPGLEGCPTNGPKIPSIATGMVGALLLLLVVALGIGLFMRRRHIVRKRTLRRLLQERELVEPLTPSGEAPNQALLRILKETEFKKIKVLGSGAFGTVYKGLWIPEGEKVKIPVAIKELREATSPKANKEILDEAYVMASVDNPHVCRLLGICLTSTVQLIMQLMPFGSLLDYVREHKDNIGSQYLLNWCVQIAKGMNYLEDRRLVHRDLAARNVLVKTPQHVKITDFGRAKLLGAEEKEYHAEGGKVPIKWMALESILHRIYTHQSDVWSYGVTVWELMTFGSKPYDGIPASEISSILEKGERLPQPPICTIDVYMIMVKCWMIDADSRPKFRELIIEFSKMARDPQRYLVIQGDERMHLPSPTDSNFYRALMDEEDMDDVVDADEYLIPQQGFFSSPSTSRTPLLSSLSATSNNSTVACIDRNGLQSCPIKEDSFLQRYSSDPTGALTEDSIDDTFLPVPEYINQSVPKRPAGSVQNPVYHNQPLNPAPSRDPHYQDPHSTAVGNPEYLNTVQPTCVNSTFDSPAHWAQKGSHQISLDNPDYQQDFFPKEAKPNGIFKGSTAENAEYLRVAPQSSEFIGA
Ba/F3(EGFR^Del19/T790M/C797S) cells, sequence (P00533 with tags, fused parts or gaps DEL746-750/T790M/C797S): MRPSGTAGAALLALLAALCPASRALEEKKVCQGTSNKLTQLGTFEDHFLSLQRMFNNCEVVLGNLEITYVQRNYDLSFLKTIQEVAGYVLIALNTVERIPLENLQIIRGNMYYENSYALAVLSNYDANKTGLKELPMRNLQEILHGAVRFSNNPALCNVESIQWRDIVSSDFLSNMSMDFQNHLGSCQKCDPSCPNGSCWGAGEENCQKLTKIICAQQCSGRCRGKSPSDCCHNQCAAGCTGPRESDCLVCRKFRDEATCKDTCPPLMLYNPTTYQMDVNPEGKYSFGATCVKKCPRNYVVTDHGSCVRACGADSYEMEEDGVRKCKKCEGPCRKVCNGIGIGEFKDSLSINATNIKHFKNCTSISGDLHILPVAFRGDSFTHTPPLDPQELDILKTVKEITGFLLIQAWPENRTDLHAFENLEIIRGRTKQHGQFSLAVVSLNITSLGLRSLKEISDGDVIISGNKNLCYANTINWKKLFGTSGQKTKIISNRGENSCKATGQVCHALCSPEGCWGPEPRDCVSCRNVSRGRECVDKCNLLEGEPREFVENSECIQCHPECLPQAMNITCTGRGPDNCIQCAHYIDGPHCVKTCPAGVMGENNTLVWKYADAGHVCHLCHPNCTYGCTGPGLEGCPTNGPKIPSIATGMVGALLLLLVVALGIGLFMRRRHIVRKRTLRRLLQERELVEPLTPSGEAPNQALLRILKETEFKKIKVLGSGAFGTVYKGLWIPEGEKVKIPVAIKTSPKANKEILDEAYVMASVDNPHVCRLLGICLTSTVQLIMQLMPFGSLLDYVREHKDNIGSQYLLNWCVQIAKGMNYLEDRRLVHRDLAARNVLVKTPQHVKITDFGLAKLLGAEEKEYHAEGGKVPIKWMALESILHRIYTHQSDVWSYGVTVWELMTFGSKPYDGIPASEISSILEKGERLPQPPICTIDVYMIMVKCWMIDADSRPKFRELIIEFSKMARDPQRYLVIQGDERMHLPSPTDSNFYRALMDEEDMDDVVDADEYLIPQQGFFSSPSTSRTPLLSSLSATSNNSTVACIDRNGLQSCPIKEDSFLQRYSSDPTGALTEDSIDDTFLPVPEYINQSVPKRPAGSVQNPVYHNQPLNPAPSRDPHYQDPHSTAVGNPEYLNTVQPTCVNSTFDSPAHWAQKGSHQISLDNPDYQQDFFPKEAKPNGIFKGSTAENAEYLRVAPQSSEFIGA

Structure (SMILES) | IC50 (EGFR^L858R/T790M/C797S) | GI50 [1] | GI50 [2] | GI50 (Ba/F3(EML4-ALK) cells)
COc1cc(N2CCC(N3CCN(C(=O)CN4CCN(C(=O)COc5cccc6c5C(=O)N(C5CCC(=O)NC5=O)C6=O)CC4)CC3)CC2)ccc1Nc1ncc(Cl)c(Nc2ccccc2P(C)(C)=O)n1 (stereo not drawn) [Compound C99, 4-(2-(4-(2-(4-(1-(4-((5-chloro-4-((2-(dimethylphosphoryl)phenyl)amino)pyrimidin-2-yl)amino)-3-methoxyphenyl)piperidin-4-yl)piperazin-1-yl)-2-oxoethyl)piperazin-1-yl)-2-oxoethoxy)-2-(2,6-dioxopiperidin-3-yl)isoindoline-1,3-dione] | 1 to 100 nM | > 300 nM |  | 
COc1cc(N2CCC(N3CCN(C(=O)COc4cccc5c4C(=O)N(C4CCC(=O)NC4=O)C5=O)CC3)CC2)ccc1Nc1ncc(Cl)c(Nc2ccccc2P(C)(C)=O)n1 (stereo not drawn) [Compound C101, 4-(2-(4-(1-(4-((5-chloro-4-((2-(dimethylphosphoryl)phenyl)amino)pyrimidin-2-yl)amino)-3-methoxyphenyl)piperidin-4-yl)piperazin-1-yl)-2-oxoethoxy)-2-(2,6-dioxopiperidin-3-yl)isoindoline-1,3-dione] | 1 to 100 nM | > 300 nM |  | 
COc1cc(N2CCC(N3CCN(C(=O)C4(C(=O)Oc5cccc6c5C(=O)N(C5CCC(=O)NC5=O)C6=O)CC4)CC3)CC2)ccc1Nc1ncc(Cl)c(Nc2ccccc2P(C)(C)=O)n1 (stereo not drawn) [Compound C104, 1-(4-(1-(4-((5-chloro-4-((2-(dimethylphosphoryl)phenyl)amino)pyrimidin-2-yl)amino)-3-methoxyphenyl)piperidin-4-yl)piperazine-1-carbonyl)cyclopropane-1-carboxylate 2-(2,6-dioxopiperidin-3-yl)-1,3-dioxoisoindolin-4-yl ester] | 1 to 100 nM | > 300 nM |  | 
COc1cc(N2CCC(N3CCN(CC(=O)N4CC(F)(F)C[C@H]4C(=O)Nc4cccc5c4CN(C4CCC(=O)NC4=O)C5=O)CC3)CC2)ccc1Nc1ncc(Cl)c(Nc2ccccc2P(C)(C)=O)n1 (stereo partly drawn) [Compound C110, (2S)-1-(2-(4-(1-(4-((5-chloro-4-((2-(dimethylphosphoryl)phenyl)amino)pyrimidin-2-yl)amino)-3-methoxyphenyl)piperidin-4-yl)piperazin-1-yl)acetyl)-N-(2-(2,6-dioxopiperidin-3-yl)-1-oxoisoindolin-4-yl)-4,4-difluoropyrrolidine-2-carboxamide] | 1 to 100 nM | > 300 nM |  | 
COc1cc(N2CCC(N3CCN(CCCCCC#Cc4cccc5c4C(=O)N(C4CCC(=O)NC4=O)C5=O)CC3)CC2)ccc1Nc1ncc(Cl)c(Nc2ccccc2P(C)(C)=O)n1 (stereo not drawn) [Compound C148, 4-(7-(4-(1-(4-((5-chloro-4-((2-(dimethylphosphoryl)phenyl)amino)pyrimidin-2-yl)amino)-3-methoxyphenyl)piperidin-4-yl)piperazin-1-yl)hept-1-yn-1-yl)-2-(2,6-dioxopiperidin-3-yl)isoindoline-1,3-dione] | 1 to 100 nM | > 300 nM |  | 
COc1cc(N2CCC(N3CCN(CCCCCC#Cc4ccc5c(c4)CN(C4CCC(=O)NC4=O)C5=O)CC3)CC2)c(C)cc1Nc1ncc(Br)c(Nc2ccc3nccnc3c2P(C)(C)=O)n1 (stereo not drawn) [Compound C163, 3-(5-(7-(4-(1-(4-((5-bromo-4-((5-(dimethylphosphoryl)quinoxalin-6-yl)amino)pyrimidin-2-yl)amino)-5-methoxy-2-methylphenyl)piperidin-4-yl)piperazin-1-yl)hept-1-yn-1-yl)-1-oxoisoindolin-2-yl)piperidine-2,6-dione] |  |  | 1 to 100 nM | 1 to 100 nM
COc1cc(N2CCC3(CCN(CCCCCCC#Cc4cccc5c4CN(C4CCC(=O)NC4=O)C5=O)CC3)CC2)c(C)cc1Nc1ncc(Br)c(Nc2ccc3nccnc3c2P(C)(C)=O)n1 (stereo not drawn) [Compound C172, 3-(4-(8-(9-(4-((5-bromo-4-((5-(dimethylphosphoryl)quinoxalin-6-yl)amino)pyrimidin-2-yl)amino)-5-methoxy-2-methylphenyl)-3,9-diazaspiro[5.5]undecan-3-yl)oct-1-yn-1-yl)-1-oxoisoindolin-2-yl)piperidine-2,6-dione] |  |  | 1 to 100 nM | 1 to 100 nM
COc1cc(N2CCC3(CCN(CCCCCCCC#Cc4cccc5c4CN(C4CCC(=O)NC4=O)C5=O)CC3)CC2)c(C)cc1Nc1ncc(Br)c(Nc2ccc3nccnc3c2P(C)(C)=O)n1 (stereo not drawn) [Compound C173, 3-(4-(9-(9-(4-((5-bromo-4-((5-(dimethylphosphoryl)quinoxalin-6-yl)amino)pyrimidin-2-yl)amino)-5-methoxy-2-methylphenyl)-3,9-diazaspiro[5.5]undecan-3-yl)non-1-yn-1-yl)-1-oxoisoindolin-2-yl)piperidine-2,6-dione] |  |  | 1 to 100 nM | 1 to 100 nM
COc1cc(N2CCC(N3CCN(CCCOCC#Cc4cccc5c4CN(C4CCC(=O)NC4=O)C5=O)CC3)CC2)ccc1Nc1ncc(Cl)c(Nc2ccccc2P(C)(C)=O)n1 (stereo not drawn) [Compound C181, 3-(4-(3-(3-(4-(1-(4-((5-chloro-4-((2-(dimethylphosphoryl)phenyl)amino)pyrimidin-2-yl)amino)-3-methoxyphenyl)piperidin-4-yl)piperazin-1-yl)propoxy)prop-1-yn-1-yl)-1-oxoisoindolin-2-yl)piperidine-2,6-dione] |  |  | 1 to 100 nM | 1 to 100 nM
COc1cc(N2CCC(N3CCN(CCCCOCC#Cc4cccc5c4CN(C4CCC(=O)NC4=O)C5=O)CC3)CC2)ccc1Nc1ncc(Cl)c(Nc2ccccc2P(C)(C)=O)n1 (stereo not drawn) [Compound C182, 3-(4-(3-(4-(4-(1-(4-((5-chloro-4-((2-(dimethylphosphoryl)phenyl)amino)pyrimidin-2-yl)amino)-3-methoxyphenyl)piperidin-4-yl)piperazin-1-yl)butoxy)prop-1-yn-1-yl)-1-oxoisoindolin-2-yl)piperidine-2,6-dione] |  |  | 1 to 100 nM | 1 to 100 nM
COc1cc(N2CCC(N3CCN(CCOCC#Cc4cc(F)cc5c4CN(C4CCC(=O)NC4=O)C5=O)CC3)CC2)ccc1Nc1ncc(Cl)c(Nc2ccccc2P(C)(C)=O)n1 (stereo not drawn) [Compound C184, 3-(4-(3-(2-(4-(1-(4-((5-chloro-4-((2-(dimethylphosphoryl)phenyl)amino)pyrimidin-2-yl)amino)-3-methoxyphenyl)piperidin-4-yl)piperazin-1-yl)ethoxy)prop-1-yn-1-yl)-6-fluoro-1-oxoisoindolin-2-yl)piperidine-2,6-dione] |  |  | 1 to 100 nM | 1 to 100 nM
COc1cc(N2CCC(N3CCN(CCCCC#Cc4cccc5c4CN(C4CCC(=O)NC4=O)C5=O)CC3)CC2)c(C)cc1Nc1ncc(Br)c(Nc2ccc3nccnc3c2P(C)(C)=O)n1 (stereo not drawn) [Compound C186, 3-(4-(6-(4-(1-(4-((5-bromo-4-((5-(dimethylphosphoryl)quinoxalin-6-yl)amino)pyrimidin-2-yl)amino)-5-methoxy-2-methylphenyl)piperidin-4-yl)piperazin-1-yl)hex-1-yn-1-yl)-1-oxoisoindolin-2-yl)piperidine-2,6-dione] |  |  | 1 to 100 nM | 1 to 100 nM
